Measured values: patent US9226929B2, “Pharmaceutically active disubstituted triazine derivatives” (Bayer Intellectual Property GMBH, priority 2011, dated 2016)
pIC50, pKd: −log10 of the molar value.

Legend:
CDK7/CyclinH/MAT1 = target: T1, CDK7/CyclinH/MAT1 (Homo sapiens, UniProt P50613); experiment: LanthaScreen Eu Kinase Binding Assay, CDK7; details: tracer 236, read-out: CDK7 (activity range), Kd
T1 construct: His; purchased Carna Biosciences
Description: (§1) This protocol describes how the LanthaScreen Eu Kinase Binding Assay was performed to determine dissociation constants (Kd) of compounds of general formula (I) and CDK/Cyclin complexes. The principle behind this assay is based upon the binding and displacement of an Alexa Fluor 647-labeled tracer, which binds to the active site of kinases. Binding of the tracer to the kinase is detected using a Eu-labeled antibody. Simultaneous binding of both the tracer and antibody to the kinase gives rise to a FRET-signal. Binding of an inhibitor to the kinase competes for binding with the tracer, resulting in a loss of FRET.
(§2) The compounds of general formula (I) summarized in Table 1 were diluted from a 10 mM DMSO stock solution 1:10 in a total volume of 15 μL DMSO. This compound predilution was then serial diluted 1:3 over 8 steps in DMSO and briefly spun down. Each compound solution was now diluted 1:33.33 in kinase buffer (HEPES: 20 mM, pH: 8.0; MgCl2: 10 mM; DTT: 1 mM; Brij-35: 0,01%), mixed thoroughly and spun down. For every sample, 5 μL of the diluted compound were mixed with 5 μL tracer working solution (e.g. 60 nM tracer 236 in kinase buffer for CDK2/Cyclin A) and 5 μL CDK/Cyclin/Anti-GST-AB-working solution (e.g. 15 nM CDK2/Cyclin A, 1:250 dilution of Anti-GST-AB in kinase buffer) in a well of a small volume 384 well plate (Corning Incorporated, Corning, N.Y., USA; order no. 3673). The tracer concentration was adjusted to its dissociation constant (Kd) for the CDK/Cyclin, which was 30 nM for CDK2/Cyclin A, CDK7/Cyclin H and CDK9/Cyclin T1, 20 nM for CDK8/Cyclin C, and 35 nM for CDK9/Cyclin K. For negative controls, in each well 5 μL of DMSO working solution (3% DMSO diluted in kinase buffer) was mixed with 5 μL Anti-GST-AB working solution (e.g. 1:250 dilution of Anti-GST-AB in kinase buffer for CDK2/Cyclin A) and 5 μL Tracer working solution (e.g. 60 nM Tracer 236 in kinase buffer for CDK2/Cyclin A). For positive controls, in each well 5 μL of DMSO working solution (3% DMSO diluted in kinase buffer) was mixed with 5 μL CDK/Cyclin/Anti-GST-AB-working solution: (e.g. 15 nM CDK2/Cyclin A, 1:250 dilution of Anti-GST-AB in kinase buffer) and 5 μL Tracer working solution (e.g. 60 nM Tracer 236 in kinase buffer for CDK2/Cyclin A). Positive and negative controls were calculated from at least 8 different sample wells. The 384 well plates were mixed in a Teleshaker plate mixer (Beckman Coulter, Brea, Calif., USA) at 2000 rpm for 40 sec, and incubated for 1 h at room temperature before reading. The FRET signal was measured at 340 nm excitation, 665 nm and 615 nm emission (for the kinase tracer and LanthaScreen Eu-AB, respectively) with an Envision spectrophotometer (Perkin Elmer, Waltham, Mass., USA) with […]. Kd values were determined from the sigmoidal dose response curves with the software Quattro Workflow (Quattro GmbH, Munich, Germany).

CDK9/Cyclin T1 = target: T2, CDK9/Cyclin T1 (Homo sapiens, UniProt P50750); experiment: LanthaScreen Eu Kinase Binding Assay, CDK9/Cyclin T1; details: tracer 236, read-out: CDK9/Cyclin T1 (activity range), Kd
T2 construct: His; purchased Invitrogen
Description: as §1, §2

CDK2/CyclinA [1] = target: T3, CDK2/CyclinA (Homo sapiens, UniProt P24941); experiment: LanthaScreen Eu Kinase Binding Assay, CDK2; details: tracer 236, read-out: CDK2 (activity range), Kd
T3 construct: GST; purchased Proqinase
Description: as §1, §2

CDK9/Cyclin K = target: T4, CDK9/Cyclin K (Homo sapiens, UniProt P50750); experiment: LanthaScreen Eu Kinase Binding Assay, CDK9/Cyclin K; details: tracer 236, read-out: CDK9/Cyclin K (activity range), Kd
T4 construct: His; purchased Invitrogen
Description: as §1, §2

CDK2/CyclinA [2] = target: T3, CDK2/CyclinA; experiment: Lance Ultra KinaSelect Assay, CDK2; format: biochemical; details: ATP 3 μM; read-out: CDK2 LANCE assay (activity range), IC50
Description: (§3) 2. Measurement of half maximal inhibitory concentration to CDKs This protocol describes how the Lance Ultra KinaSelect Assay was performed to determine half maximal inhibitory concentration (1050) of compounds of general formula (I) and CDK/Cyclin complexes. The principle behind this enzymatic assay is based upon the phosphorylation of the ULight-Peptide Substrat. It is detected by using a specific
(§4) EU-labeled anti-phospho peptide antibody. The binding of the Eu-labeled anti-phospho peptide antibody to the phosphorylated ULight labeled peptide gives rise to a FRET-signal. Binding of an inhibitor to the kinase prevents phosphorylation of the ULight-MBP Substrat, resulting in a loss of FRET.
(§5) The compounds of general formula (I) summarized in Table 5 were diluted from a 10 mM DMSO stock solution 1:10 in a total volume of 15 μL DMSO. This compound predilution was then serial diluted 1:3 over 8 steps in DMSO and briefly spun down. Each compound solution was now diluted 1:20 in Enzymatic Buffer (HEPES: 50 mM, pH: 7.5; MgCl2: 10 mM; EGTA: 1 mM; DTT: 2 mM; Tween-20: 0.01%), mixed thoroughly and spun down. For every sample, 2 μL of the diluted compound were mixed with 6 μL CDK/Cyclin/Substrat solution and 2 μL ATP solution in a well of a small volume 384 well plate (Corning Incorporated, Corning, N.Y., USA; order no. 3673). The CDK/Cyclin was diluted to the appropriate concentration (see Table 3) and the ATP concentration was adjusted to its […] for the CDK/Cyclin, which was 3 μM for CDK2/Cyclin A, 20 μM for CDK1/Cyclin B1, 25 μM for CDK7/Cyclin H and CDK9/Cyclin T1, 55 μM for CDK6/Cyclin D3, 90 μM for CDK4/Cyclin D1 and 125 μM for CDK9/Cyclin K. For negative controls, in each well 2 μL of DMSO solution (1% final DMSO assay concentration) was mixed with 6 μL substrate solution (50 nM ULight MBP final assay concentration) and 2 μL ATP solution (appropriate final concentration see Table 3). For positive controls, in each well 2 μL of DMSO solution (1% final DMSO assay concentration) was mixed with 6 μL CDK/Cyclin/Substrat (appropriate final concentration see Table 3) and 2 μL Tracer ATP solution (appropriate final concentration see Table 3). Positive and negative controls were calculated from at least 8 different sample wells. The 384 well plates were mixed in a Teleshaker plate mixer (Beckman Coulter, Brea, Calif., USA) at 2000 rpm for 40 sec, and incubated for 1 h at room temperature. Before reading, 10 μL the detection buffer (Lance Detection Buffer 1×; EDTA: […]; Eu-Anti-P-MBP: see Table 3) was added. The FRET signal was measured at 340 nm excitation, 665 nm and 615 nm emission (for the kinase tracer and LanthaScreen Eu-AB, respectively) with an Envision spectrophotometer (Perkin Elmer, Waltham, Mass., USA) with 50 μs delay and 300 μs integration time. IC50 values were determined from the sigmoidal dose response curves with the software Quattro Workflow (Quattro GmbH, Munich, Germany).

CDK9 = target: T5, CDK9 (Homo sapiens, UniProt P50750); experiment: Lance Ultra KinaSelect Assay, CDK9; format: biochemical; details: cyclin partner (T1 or K) not stated; read-out: CDK9 LANCE assay (activity range), IC50
T5 construct: purchased Invitrogen
Description: as §3, §4, §5

T2 sequence (P50750 whole entry): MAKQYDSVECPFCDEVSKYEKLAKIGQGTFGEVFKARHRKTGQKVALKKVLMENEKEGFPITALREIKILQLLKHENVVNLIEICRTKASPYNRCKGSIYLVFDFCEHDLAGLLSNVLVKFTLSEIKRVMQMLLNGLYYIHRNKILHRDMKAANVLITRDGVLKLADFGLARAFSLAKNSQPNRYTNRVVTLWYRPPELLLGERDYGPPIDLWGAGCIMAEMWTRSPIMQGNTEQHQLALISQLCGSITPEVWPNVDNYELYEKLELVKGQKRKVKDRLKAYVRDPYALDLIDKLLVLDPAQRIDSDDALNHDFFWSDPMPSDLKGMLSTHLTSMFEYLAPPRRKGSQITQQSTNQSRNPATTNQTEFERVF
T2 sequence (O60563 whole entry partner): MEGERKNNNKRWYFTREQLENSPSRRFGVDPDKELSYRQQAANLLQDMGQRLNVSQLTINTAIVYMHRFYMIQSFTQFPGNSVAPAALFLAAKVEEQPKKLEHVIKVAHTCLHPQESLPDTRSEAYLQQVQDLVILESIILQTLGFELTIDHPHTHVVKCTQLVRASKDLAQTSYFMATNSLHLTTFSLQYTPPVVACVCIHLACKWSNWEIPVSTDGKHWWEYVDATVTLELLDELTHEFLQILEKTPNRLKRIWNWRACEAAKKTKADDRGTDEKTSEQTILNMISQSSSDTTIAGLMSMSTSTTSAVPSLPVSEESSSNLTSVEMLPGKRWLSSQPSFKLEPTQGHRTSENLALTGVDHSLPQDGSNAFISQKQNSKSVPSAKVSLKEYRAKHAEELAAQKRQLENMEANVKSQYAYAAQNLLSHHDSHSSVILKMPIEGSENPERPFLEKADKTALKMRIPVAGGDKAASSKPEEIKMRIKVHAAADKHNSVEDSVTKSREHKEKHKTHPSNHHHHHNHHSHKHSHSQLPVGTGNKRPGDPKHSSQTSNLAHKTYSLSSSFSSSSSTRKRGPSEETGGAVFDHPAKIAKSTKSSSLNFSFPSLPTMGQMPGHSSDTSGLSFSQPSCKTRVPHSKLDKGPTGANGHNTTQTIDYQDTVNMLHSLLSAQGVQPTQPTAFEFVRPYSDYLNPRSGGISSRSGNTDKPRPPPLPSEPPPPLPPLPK
T4 sequence (P50750 whole entry): as the sequence (P50750 whole entry) above
T4 sequence (O75909 1-357 isoform O75909-1 partner): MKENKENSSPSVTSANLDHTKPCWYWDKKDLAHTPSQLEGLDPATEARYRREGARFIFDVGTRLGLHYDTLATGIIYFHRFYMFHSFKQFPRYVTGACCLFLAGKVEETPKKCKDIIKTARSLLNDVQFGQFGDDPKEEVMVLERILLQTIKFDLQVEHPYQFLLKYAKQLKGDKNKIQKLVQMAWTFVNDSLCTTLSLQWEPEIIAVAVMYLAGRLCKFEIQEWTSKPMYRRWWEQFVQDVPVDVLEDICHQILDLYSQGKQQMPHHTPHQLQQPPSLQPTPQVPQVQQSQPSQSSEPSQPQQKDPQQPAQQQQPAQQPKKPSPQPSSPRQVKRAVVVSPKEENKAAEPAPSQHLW
T1 sequence (P50613 whole entry): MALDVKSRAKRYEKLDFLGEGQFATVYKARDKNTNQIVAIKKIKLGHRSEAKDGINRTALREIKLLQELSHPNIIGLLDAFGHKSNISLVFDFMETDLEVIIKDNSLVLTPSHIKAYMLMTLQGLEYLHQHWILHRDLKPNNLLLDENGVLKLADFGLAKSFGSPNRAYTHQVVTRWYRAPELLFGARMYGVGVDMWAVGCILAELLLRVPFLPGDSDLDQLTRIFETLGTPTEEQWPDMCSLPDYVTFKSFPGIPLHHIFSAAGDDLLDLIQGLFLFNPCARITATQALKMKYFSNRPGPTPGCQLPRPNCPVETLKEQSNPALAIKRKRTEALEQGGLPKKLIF
T1 sequence (P51946 whole entry partner): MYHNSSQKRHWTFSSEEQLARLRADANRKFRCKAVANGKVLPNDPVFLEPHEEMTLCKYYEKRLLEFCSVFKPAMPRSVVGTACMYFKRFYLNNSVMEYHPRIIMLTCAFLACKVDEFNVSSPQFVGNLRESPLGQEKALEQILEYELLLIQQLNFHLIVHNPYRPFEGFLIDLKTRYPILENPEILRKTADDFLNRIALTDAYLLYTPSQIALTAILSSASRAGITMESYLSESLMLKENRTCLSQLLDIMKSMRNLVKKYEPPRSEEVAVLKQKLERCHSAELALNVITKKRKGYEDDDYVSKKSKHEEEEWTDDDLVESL
T1 sequence (P51948 whole entry partner): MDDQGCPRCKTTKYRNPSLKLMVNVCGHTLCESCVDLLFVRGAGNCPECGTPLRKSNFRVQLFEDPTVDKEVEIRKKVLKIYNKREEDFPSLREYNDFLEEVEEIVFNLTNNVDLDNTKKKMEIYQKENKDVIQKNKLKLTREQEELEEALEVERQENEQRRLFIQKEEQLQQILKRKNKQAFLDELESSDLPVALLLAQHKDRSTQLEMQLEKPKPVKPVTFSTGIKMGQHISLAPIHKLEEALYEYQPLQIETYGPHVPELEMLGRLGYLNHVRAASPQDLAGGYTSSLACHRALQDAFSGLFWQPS
T5 sequence (P50750 whole entry): as the sequence (P50750 whole entry) above

## COC[C@H]1CCCCN1c1ncnc(Nc2cccc(CS(N)(=O)=O)c2)n1 [Compound B5, (R)-3-[(4-(2-Methoxymethylpiperidin-1-yl)-1,3,5-triazin-2-yl)amino]-benzenemethanesulfonamide]
CDK7/CyclinH/MAT1
  pKd: < 5.00
CDK9/Cyclin T1
  pKd: 6.00 to 7.00
CDK2/CyclinA [1]
  pKd: < 5.00
CDK9/Cyclin K
  pKd: 6.00 to 7.00

## NS(=O)(=O)Cc1cccc(Nc2ncnc(N3CCOCC3)n2)c1 [Compound B10, 3-[(4-(Morpholin-4-yl)-1,3,5-triazin-2-yl)amino]benzenemethane sulfonamide]
CDK7/CyclinH/MAT1
  pKd: 5.00 to 6.00
CDK9/Cyclin T1
  pKd: 6.00 to 7.00
CDK2/CyclinA [1]
  pKd: 5.00 to 6.00
CDK9/Cyclin K
  pKd: 6.00 to 7.00

## COC[C@@H]1CCCN1c1ncnc(Nc2cccc(CS(N)(=O)=O)c2)n1 [Compound B18, (S)-3-[(4-(2-(Methoxymethyl)pyrrolidin-1-yl)-1,3,5-triazin-2-yl)amino]benzenemethanesulfonamide]
CDK7/CyclinH/MAT1
  pKd: < 5.00
CDK9/Cyclin T1
  pKd: 5.00 to 6.00
CDK2/CyclinA [1]
  pKd: < 5.00
CDK9/Cyclin K
  pKd: < 5.00

## NS(=O)(=O)Cc1cccc(Nc2ncnc(N3CCC[C@@H]3CO)n2)c1 [Compound B24, (R)-3-[(4-(2-(Hydroxymethyl)pyrrolidin-1-yl)-1,3,5-triazin-2-yl)amino]-benzenemethanesulfonamide]
CDK7/CyclinH/MAT1
  pKd: < 5.00
CDK9/Cyclin T1
  pKd: 5.00 to 6.00
CDK2/CyclinA [1]
  pKd: < 5.00
CDK9/Cyclin K
  pKd: 5.00 to 6.00

## NS(=O)(=O)Cc1cccc(Nc2ncnc(N3CCC[C@H]3CO)n2)c1 [Compound B25, (S)-3-[(4-(2-(Hydroxymethyl)pyrrolidin-1-yl)-1,3,5-triazin-2-yl)amino]-benzenemethanesulfonamide]
CDK7/CyclinH/MAT1
  pKd: < 5.00
CDK9/Cyclin T1
  pKd: 5.00 to 6.00
CDK2/CyclinA [1]
  pKd: < 5.00
CDK9/Cyclin K
  pKd: 5.00 to 6.00

## NS(=O)(=O)Cc1cccc(Nc2ncnc(N3CCC[C@@H]3CN3CCCC3)n2)c1 [Compound B31, (R)-3-[(4-(2-((Pyrrolidin-1-yl)methyl)pyrrolidin-1-yl)-1,3,5-triazin-2-yl)amino]benzenemethanesulfonamide]
CDK7/CyclinH/MAT1
  pKd: < 5.00
CDK9/Cyclin T1
  pKd: 5.00 to 6.00
CDK2/CyclinA [1]
  pKd: < 5.00
CDK9/Cyclin K
  pKd: < 5.00

## COC[C@H]1CCN1c1ncnc(Nc2cccc(CS(N)(=O)=O)c2)n1 [Compound B35, (R)-3-[(4-(2-(Methoxymethyl)azetidin-1-yl)-1,3,5-triazin-2-yl)amino]-benzenemethanesulfonamide]
CDK7/CyclinH/MAT1
  pKd: < 5.00
CDK9/Cyclin T1
  pKd: 6.00 to 7.00
CDK2/CyclinA [1]
  pKd: < 5.00
CDK9/Cyclin K
  pKd: 5.00 to 6.00

## Nc1cccc2c1CCN(c1ncnc(Nc3cccc(CS(N)(=O)=O)c3)n1)C2 [Compound B41, 3-[(4-(5-Amino-3,4-dihydroisoquinolin-2(1H)-yl)-1,3,5-triazin-2-yl)amino]benzenemethanesulfonamide]
CDK7/CyclinH/MAT1
  pKd: < 5.00
CDK9/Cyclin T1
  pKd: 5.00 to 6.00
CDK9/Cyclin K
  pKd: 5.00 to 6.00

## NS(=O)(=O)Cc1cccc(Nc2ncnc(N3CCCc4ccccc43)n2)c1 [Compound B42, 3-[(4-(3,4-Dihydroquinolin-1(2H)-yl)-1,3,5-triazin-2-yl)amino]-benzenemethanesulfonamide]
CDK7/CyclinH/MAT1
  pKd: < 5.00
CDK9/Cyclin T1
  pKd: > 7.00
CDK2/CyclinA [1]
  pKd: 6.00 to 7.00
CDK9/Cyclin K
  pKd: > 7.00

## NS(=O)(=O)Cc1cccc(Nc2ncnc(N3CCc4sccc4C3)n2)c1 [Compound B43, 3-[(4-(6,7-Dihydrothieno[3,2-c]pyridin-5(4H)-yl)-1,3,5-triazin-2-yl)amino]benzenemethanesulfonamide]
CDK7/CyclinH/MAT1
  pKd: 5.00 to 6.00
CDK9/Cyclin T1
  pKd: 6.00 to 7.00
CDK9/Cyclin K
  pKd: 6.00 to 7.00

## NS(=O)(=O)Cc1cccc(Nc2ncnc(N3CCn4ccnc4C3)n2)c1 [Compound B46, 3-[(4-(5,6-Dihydroimidazo[1,2-a]pyrazin-7(8H)-yl)-1,3,5-triazin-2-yl)amino]benzenemethanesulfonamide]
CDK7/CyclinH/MAT1
  pKd: < 5.00
CDK9/Cyclin T1
  pKd: 5.00 to 6.00
CDK9/Cyclin K
  pKd: 5.00 to 6.00

## NS(=O)(=O)Cc1cccc(Nc2ncnc(N3Cc4cccnc4C3)n2)c1 [Compound B48, 3-[(4-(5H-Pyrrolo[3,4-b]pyridin-6(7H)-yl)-1,3,5-triazin-2-yl)amino]-benzenemethanesulfonamide]
CDK7/CyclinH/MAT1
  pKd: < 5.00
CDK9/Cyclin T1
  pKd: 5.00 to 6.00
CDK9/Cyclin K
  pKd: 6.00 to 7.00

## NS(=O)(=O)Cc1cccc(Nc2ncnc(N3Cc4cncnc4C3)n2)c1 [Compound B50, 3-[(4-(5H-Pyrrolo[3,4-d]pyrimidin-6(7H)-yl)-1,3,5-triazin-2-yl)amino]-benzenemethanesulfonamide]
CDK7/CyclinH/MAT1
  pKd: < 5.00
CDK9/Cyclin T1
  pKd: 6.00 to 7.00
CDK9/Cyclin K
  pKd: 5.00 to 6.00

## NS(=O)(=O)Cc1cccc(Nc2ncnc(N3CCc4ccccc43)n2)c1 [Compound B52, 3-[(4-(Indolin-1-yl)-1,3,5-triazin-2-yl)amino]-benzenemethane sulfonamide]
CDK7/CyclinH/MAT1
  pKd: < 5.00
CDK9/Cyclin T1
  pKd: > 7.00
CDK2/CyclinA [1]
  pKd: 6.00 to 7.00
CDK9/Cyclin K
  pKd: > 7.00

## C[C@H]1CCCN1c1ncnc(Nc2cccc(CS(N)(=O)=O)c2)n1 [Compound B53, (S)-3-[(4-(2-Methylpyrrolidin-1-yl)-1,3,5-triazin-2-yl)amino]-benzenemethanesulfonamide]
CDK7/CyclinH/MAT1
  pKd: < 5.00
CDK2/CyclinA [2]
  pIC50: 5.00 to 6.00
CDK9/Cyclin T1
  pKd: > 7.00
CDK9
  pIC50: 6.00 to 7.00
CDK2/CyclinA [1]
  pKd: 5.00 to 6.00

## NS(=O)(=O)Cc1cccc(Nc2ncnc(N3CCC[C@@H]3C(F)(F)F)n2)c1 [Compound B54, (R)-3-[(4-(2-(Trifluoromethyl)pyrrolidin-1-yl)-1,3,5-triazin-2-yl)amino]-benzenemethanesulfonamide]
CDK7/CyclinH/MAT1
  pKd: < 5.00
CDK2/CyclinA [2]
  pIC50: 5.00 to 6.00
CDK9/Cyclin T1
  pKd: 6.00 to 7.00
CDK9
  pIC50: 5.00 to 6.00
CDK2/CyclinA [1]
  pKd: 5.00 to 6.00
